Test system: 953936-095-R-J2-PDC spheroids with HUVEC/MSC, viability
Test: Anticancer human tumor 953936-095-R-J2-PDC patient-derived cervical squamous cell carcinoma cell line growth inhibition [PI3K]
Conditions: for IC50: curve of first compound; for viability, T/C: stronger effect = lower value
How it was run: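 We assembled tumor spheroids that included a stromal compartment of HUVEC and MSCs, then exposed them to targeted agents alone and together with PI3K pathway inhibitors. Concentration series descended by half-log from clinically achievable Cmax levels. Viability served as the endpoint.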

[1] = second compound 0.00316 µM, first compound 0.0316 µM
[2] = second compound 0.00316 µM, first compound 0.1 µM
[3] = second compound 0.00316 µM, first compound 0.316 µM
[4] = second compound 0.00316 µM, first compound 1 µM
[5] = second compound 0.00316 µM, first compound 3.16 µM
[6] = second compound 0.00316 µM, first compound 10 µM
[7] = second compound 0.01 µM, first compound 0.0316 µM
[8] = second compound 0.01 µM, first compound 0.1 µM
[9] = second compound 0.01 µM, first compound 0.316 µM
[10] = second compound 0.01 µM, first compound 1 µM
[11] = second compound 0.01 µM, first compound 3.16 µM
[12] = second compound 0.01 µM, first compound 10 µM
[13] = second compound 0.0316 µM, first compound 0.0316 µM
[14] = second compound 0.0316 µM, first compound 0.1 µM
[15] = second compound 0.0316 µM, first compound 0.316 µM
[16] = second compound 0.0316 µM, first compound 1 µM
[17] = second compound 0.0316 µM, first compound 3.16 µM
[18] = second compound 0.0316 µM, first compound 10 µM
[19] = second compound 0.1 µM, first compound 0.0316 µM
[20] = second compound 0.1 µM, first compound 0.1 µM
[21] = second compound 0.1 µM, first compound 0.316 µM
[22] = second compound 0.1 µM, first compound 1 µM
[23] = second compound 0.1 µM, first compound 3.16 µM
[24] = second compound 0.1 µM, first compound 10 µM
[25] = second compound 0.316 µM, first compound 0.0316 µM
[26] = second compound 0.316 µM, first compound 0.1 µM
[27] = second compound 0.316 µM, first compound 0.316 µM
[28] = second compound 0.316 µM, first compound 1 µM
[29] = second compound 0.316 µM, first compound 3.16 µM
[30] = second compound 0.316 µM, first compound 10 µM
[31] = second compound 1 µM, first compound 0.0316 µM
[32] = second compound 1 µM, first compound 0.1 µM
[33] = second compound 1 µM, first compound 0.316 µM
[34] = second compound 1 µM, first compound 1 µM
[35] = second compound 1 µM, first compound 3.16 µM
[36] = second compound 1 µM, first compound 10 µM
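Also: spheroids exposed to compounds for seven days before read-out.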

What does the source list for `CC(C)NCC(C(=O)N1CCN(c2ncnc3c2C(C)CC3O)CC1)c1ccc(Cl)cc1` (stereo unspecified) + COc1c(OCCCN2CCOCC2)ccc2c3n(c(=NC(=O)c4cnc(N)nc4)nc12)CCN3?
IC50 (second compound 0.00316 µM): 793 nM; IC50 (second compound 0.01 µM): 537 nM; IC50 (second compound 0.0316 µM): < 31.6 nM; IC50 (second compound 0.1 µM): < 31.6 nM; IC50 (second compound 0.316 µM): < 31.6 nM; IC50 (second compound 1 µM): < 31.6 nM; viability, T/C [1]: 80.9%; viability, T/C [2]: 85.2%; viability, T/C [3]: 66.5%; viability, T/C [4]: 46.5%; viability, T/C [5]: 21%; viability, T/C [6]: 11.6%; viability, T/C [7]: 68.9%; viability, T/C [8]: 69.2%; viability, T/C [9]: 62.2%; viability, T/C [10]: 35.6%; viability, T/C [11]: 16.6%; viability, T/C [12]: 9.89%; viability, T/C [13]: 44.4%; viability, T/C [14]: 38.5%; viability, T/C [15]: 35.7%; viability, T/C [16]: 24%; viability, T/C [17]: 12.2%; viability, T/C [18]: 6.65%; viability, T/C [19]: 18.9%; viability, T/C [20]: 16.4%; viability, T/C [21]: 16.3%; viability, T/C [22]: 12.4%; viability, T/C [23]: 6.76%; viability, T/C [24]: 3.98%; viability, T/C [25]: 6.59%; viability, T/C [26]: 6.54%; viability, T/C [27]: 5.22%; viability, T/C [28]: 4.04%; viability, T/C [29]: 2.93%; viability, T/C [30]: 1.71%; viability, T/C [31]: 1.44%; viability, T/C [32]: 2.11%; viability, T/C [33]: 1.2%; viability, T/C [34]: 1.24%; viability, T/C [35]: 0.83%; viability, T/C [36]: 0.81%

`CCN1CCN(Cc2ccc(Nc3ncc(F)c(-c4cc(F)c5nc(C)n(C(C)C)c5c4)n3)nc2)CC1` + COc1c(OCCCN2CCOCC2)ccc2c3n(c(=NC(=O)c4cnc(N)nc4)nc12)CCN3 was tested. Which IC50 (second compound 0.00316 µM) did it give?
The IC50 was greater than 1000 nM.

And the IC50 (second compound 0.01 µM)?
Its IC50 is greater than 1000 nM.

What about the IC50 (second compound 0.0316 µM) of the same compound?
Its IC50 is less than 3.16 nM.

What about the IC50 (second compound 0.1 µM) of the same compound?
Its IC50 is less than 3.16 nM.

What about the IC50 (second compound 0.316 µM) of the same compound?
The IC50 was less than 3.16 nM.

What about the IC50 (second compound 1 µM) of the same compound?
The IC50 was less than 3.16 nM.

And the viability, T/C (second compound 0.00316 µM, first compound 0.00316 µM)?
Its viability, T/C is 92.5%.

And the viability, T/C (second compound 0.00316 µM, first compound 0.01 µM)?
The viability, T/C was 91.2%.

What about the viability, T/C [1] of the same compound?
Its viability, T/C is 87%.

And the viability, T/C [2]?
Its viability, T/C is 91.7%.

What about the viability, T/C [3] of the same compound?
The viability, T/C was 76.5%.

And the viability, T/C [4]?
The viability, T/C was 67.7%.

What about the viability, T/C (second compound 0.01 µM, first compound 0.00316 µM) of the same compound?
The viability, T/C was 70.8%.

What about the viability, T/C (second compound 0.01 µM, first compound 0.01 µM) of the same compound?
Its viability, T/C is 75%.

And the viability, T/C [7]?
The viability, T/C was 69.7%.

What about the viability, T/C [8] of the same compound?
The viability, T/C was 60.7%.

And the viability, T/C [9]?
Its viability, T/C is 56%.

And the viability, T/C [10]?
The viability, T/C was 55.5%.

And the viability, T/C (second compound 0.0316 µM, first compound 0.00316 µM)?
The viability, T/C was 40.5%.

What about the viability, T/C (second compound 0.0316 µM, first compound 0.01 µM) of the same compound?
Its viability, T/C is 40.9%.

What about the viability, T/C [13] of the same compound?
Its viability, T/C is 37.7%.

What about the viability, T/C [14] of the same compound?
The viability, T/C was 33.1%.

And the viability, T/C [15]?
Its viability, T/C is 35.9%.

And the viability, T/C [16]?
The viability, T/C was 31.7%.

And the viability, T/C (second compound 0.1 µM, first compound 0.00316 µM)?
The viability, T/C was 20%.

And the viability, T/C (second compound 0.1 µM, first compound 0.01 µM)?
Its viability, T/C is 17.5%.

What about the viability, T/C [19] of the same compound?
The viability, T/C was 15.2%.

What about the viability, T/C [20] of the same compound?
Its viability, T/C is 13.8%.

What about the viability, T/C [21] of the same compound?
Its viability, T/C is 14.2%.

What about the viability, T/C [22] of the same compound?
The viability, T/C was 15.6%.

What about the viability, T/C (second compound 0.316 µM, first compound 0.00316 µM) of the same compound?
Its viability, T/C is 6%.

What about the viability, T/C (second compound 0.316 µM, first compound 0.01 µM) of the same compound?
The viability, T/C was 5.63%.

What about the viability, T/C [25] of the same compound?
The viability, T/C was 4.91%.

What about the viability, T/C [26] of the same compound?
The viability, T/C was 5.77%.

What about the viability, T/C [27] of the same compound?
Its viability, T/C is 4.23%.

And the viability, T/C [28]?
Its viability, T/C is 6.22%.

What about the viability, T/C (second compound 1 µM, first compound 0.00316 µM) of the same compound?
The viability, T/C was 1.99%.

And the viability, T/C (second compound 1 µM, first compound 0.01 µM)?
Its viability, T/C is 1.61%.

What about the viability, T/C [31] of the same compound?
Its viability, T/C is 1.43%.

What about the viability, T/C [32] of the same compound?
The viability, T/C was 1.48%.

What about the viability, T/C [33] of the same compound?
The viability, T/C was 1.73%.

What about the viability, T/C [34] of the same compound?
The viability, T/C was 2.54%.

For `Cn1ncc(Cl)c1-c1cc(C(=O)NC(CN)Cc2cccc(F)c2)sc1Cl` (stereo unspecified) + COc1c(OCCCN2CCOCC2)ccc2c3n(c(=NC(=O)c4cnc(N)nc4)nc12)CCN3, which IC50 (second compound 0.00316 µM) is on record?
Its IC50 is 486 nM.

And the IC50 (second compound 0.01 µM)?
The IC50 was 337 nM.

And the IC50 (second compound 0.0316 µM)?
Its IC50 is less than 31.6 nM.

What about the IC50 (second compound 0.1 µM) of the same compound?
Its IC50 is less than 31.6 nM.

What about the IC50 (second compound 0.316 µM) of the same compound?
Its IC50 is less than 31.6 nM.

What about the IC50 (second compound 1 µM) of the same compound?
The IC50 was less than 31.6 nM.

And the viability, T/C [1]?
Its viability, T/C is 81.2%.

And the viability, T/C [2]?
Its viability, T/C is 85.4%.

What about the viability, T/C [3] of the same compound?
The viability, T/C was 54.1%.

And the viability, T/C [4]?
Its viability, T/C is 36.5%.

What about the viability, T/C [5] of the same compound?
The viability, T/C was 17.8%.

What about the viability, T/C [6] of the same compound?
The viability, T/C was 10.2%.

And the viability, T/C [7]?
The viability, T/C was 69.4%.

And the viability, T/C [8]?
Its viability, T/C is 68.6%.

What about the viability, T/C [9] of the same compound?
Its viability, T/C is 49.8%.

And the viability, T/C [10]?
Its viability, T/C is 28.7%.

And the viability, T/C [11]?
The viability, T/C was 14.4%.

What about the viability, T/C [12] of the same compound?
Its viability, T/C is 8.14%.

And the viability, T/C [13]?
Its viability, T/C is 39.1%.

And the viability, T/C [14]?
The viability, T/C was 36.8%.

What about the viability, T/C [15] of the same compound?
Its viability, T/C is 32.5%.

What about the viability, T/C [16] of the same compound?
Its viability, T/C is 19.1%.

And the viability, T/C [17]?
Its viability, T/C is 9.8%.

What about the viability, T/C [18] of the same compound?
Its viability, T/C is 4.58%.

And the viability, T/C [19]?
Its viability, T/C is 21.8%.

What about the viability, T/C [20] of the same compound?
The viability, T/C was 17.8%.

What about the viability, T/C [21] of the same compound?
Its viability, T/C is 14.3%.

What about the viability, T/C [22] of the same compound?
Its viability, T/C is 12.9%.

What about the viability, T/C [23] of the same compound?
The viability, T/C was 6.24%.

And the viability, T/C [24]?
The viability, T/C was 2.41%.

What about the viability, T/C [25] of the same compound?
Its viability, T/C is 5.73%.

What about the viability, T/C [26] of the same compound?
The viability, T/C was 5.77%.

What about the viability, T/C [27] of the same compound?
The viability, T/C was 6.01%.

What about the viability, T/C [28] of the same compound?
The viability, T/C was 3.54%.

And the viability, T/C [29]?
Its viability, T/C is 3.19%.

What about the viability, T/C [30] of the same compound?
The viability, T/C was 1.52%.

What about the viability, T/C [31] of the same compound?
The viability, T/C was 1.54%.

And the viability, T/C [32]?
The viability, T/C was 1.61%.

And the viability, T/C [33]?
The viability, T/C was 1.15%.

And the viability, T/C [34]?
The viability, T/C was 1.37%.

What about the viability, T/C [35] of the same compound?
Its viability, T/C is 1.11%.

And the viability, T/C [36]?
The viability, T/C was 0.46%.
